One series relates to OVCAR3. In words: Cell viability assay. To be noted: Homo sapiens, OVCAR-3, 24 h; OVCAR3 (Others); read-out: AZD5991 24h GI50. It is filed as cell-based.
Another series relates to Sudhl4. In words: Cell viability assay. To be noted: Homo sapiens, SU-DHL-4, 24 h; Sudhl4 (NHL); read-out: AZD5991 24h GI50. Format: cell-based.
Another series has as its system Kasumi1. In words: Cell viability assay. It is filed as cell-based. The settings on record: Homo sapiens, Kasumi 1, 24 h; Kasumi1 (AML); read-out: AZD5991 24h GI50.
A further series has as its system RCK8. The series is described as follows: Cell viability assay. Format: cell-based. To be noted: Homo sapiens, 24 h; RCK8 (NHL); read-out: AZD5991 24h GI50.
The next series has as its system OCILY10. In words: Cell viability assay. Format: cell-based. To be noted: Homo sapiens, OCI-Ly10, 24 h; OCILY10 (NHL); read-out: AZD5991 24h GI50.
The subject of another series is ULA. The series is described as follows: Cell viability assay. Format: cell-based. To be noted: 24 h; ULA (NHL); read-out: AZD5991 24h GI50.
A further series relates to MOLP-8 tumors. The series is described as follows: MOLP-8 subcutaneous xenograft efficacy. Format: in vivo. Here is the method:
Female C.B.-17 SCID mice and female nude rats were purchased from Charles River Laboratories. […]. All xenograft studies were conducted at our Association for the Assessment and Accreditation of Laboratory Animal Care accredited facility in Waltham, MA in accordance with ethical regulations described in the guidelines established by the internal Institutional Animal Care and Use Committee. […]. In mice, drugs were dosed intravenously in a volume of 5 mL kg^-1 except for venetoclax that was dosed orally in a volume of 10 mL kg^-1. […]. Ten million MV4-11 cells were injected subcutaneously in the right flank of rats in a volume of 0.1 mL. Tumor volumes (measured by caliper), animal body weight, and tumor condition were recorded twice weekly for the duration of the study. The tumor volume was calculated using the formula: length (mm) × width (mm)^2[…]. For efficacy studies, growth inhibition from the start of treatment was assessed by comparison of the differences in tumor volume between control and treated groups. Statistical significance was evaluated using non-parametric, unpaired, two-tailed t-test. For efficacy studies, animals were randomized based on tumor volumes using stratified sampling, and enrolled into control and treatment groups. Dosing began when mean tumor size reached ~230 mm^3 in mice and 900 mm^3 in rats. Mice were euthanized once tumor size reached 2000 mm^3. Mice were excluded from the study upon body weight loss > 10% of the body weight at the initiation of the study. For pharmacokinetic analysis, plasma samples were precipitated and diluted with acetonitrile containing internal standard and analyzed by LC–MS/MS versus a calibration curve of known concentrations.

In the next series the test system is Colo205. The series is described as follows: Cell viability assay. To be noted: Homo sapiens, COLO 205, 24 h; Colo205 (GI); read-out: AZD5991 24h GI50. It is filed as cell-based.
In series [1] the test system is Eμ-Myc lymphoma cells stably expressing human Bcl-w. The series is described as follows: Apoptosis induction in Eμ-Myc lymphoma cells. To be noted: overexpression of Bcl-w, 24 h.
Text: The retroviral plasmids to express human Bcl-2 family members in murine Eμ-Myc lymphoma cells are MSCV-hMCL-1-GFP, MSCV-hBCL-2-GFP, MSCV-hBCL-XL-GFP, MSCV-hBFL-1/A1-GFP, and MSCV-hBCL-w-GFP. To produce viruses, constructs of interest were co-transfected into HEK293T cells with the plasmid encoding the packaging viruses (p-CL-AMPHO provided by Phillip Darcy from Peter MacCallum Cancer Center, Melbourne, Australia) using standard calcium phosphate transient transfection technique. The retroviruses were harvested, filtered and used to infect target cells following standard procedures.
Samples were then centrifuged, washed twice with PBS and analyzed by flow cytometry in a BD LSRFortessa. FACSDiva software was used for data collection and FlowJo software for data analysis.
A further series deals with MDAMB468. The series is described as follows: Cell viability assay. The settings on record: Homo sapiens, MDA-MB-468, 24 h; MDAMB468 (Breast); read-out: AZD5991 24h GI50. Format: cell-based.
A further series deals with KMS34. In words: Cell viability assay. It is filed as cell-based. To be noted: KMS-34, 24 h; KMS34 (MM); read-out: AZD5991 24h GI50.
Another series concerns MCF7. The series is described as follows: Cell viability assay. It is filed as cell-based. To be noted: Homo sapiens, 24 h; MCF7 (Breast); read-out: AZD5991 24h GI50.
A further series deals with MOLM-13 leukemic cells. The series is described as follows: MOLM-13 disseminated AML model. The settings on record: venetoclax 100 mg kg^−1 p.o. daily, AZD5991 60 mg kg^−1 i.v. weekly, after 10 days. It is filed as in vivo, mice. An excerpt:
MOLM-13: These studies complied with all relevant ethical regulations described in the guidelines established by GV-SOLAS Institutional Animal Care and Use Committee. Female CIEA-NOG mice were purchased from Taconic. Mice between 5 and 8 weeks old were tail vein injected with five million MOLM-13 cells. Treatment started 3 days after implantation. AZD5991, venetoclax, and vehicle were formulated and administered as mentioned above. Bone marrow and peripheral blood were collected 10 days post-treatment initiation, followed by red cell lysis (ACK lysis buffer), washes with FC buffer (PBS + 2% FCS) and cell staining with AquaZombie live/dead stain (cat#423102, Biolegend) containing antibodies against human CD45 (cat#564105, BDBiosciences) and human HLA-ABC (cat#561346, BDBiosciences) or isotype controls (mIgG1 cat#552834, BDBiosciences; mIgG1 cat#561504, BDBiosciences). Samples were washed with FC buffer and data acquired on an Attune NXT cytometer and analyzed using FlowJo software. Gating was performed on single/live/FCS vs. SSC/HLA-ABC vs. hCD45 double positive cells (Supplementary Figure 8).

The subject of another series is H1048. The series is described as follows: Cell viability assay. It is filed as cell-based. The settings on record: Homo sapiens, NCI-H1048, 24 h; H1048 (Lung); read-out: AZD5991 24h GI50.
Setting [2] is: single i.v. dose 60 mg kg^−1, ten days after treatment.

The structures appear in SMILES notation.

Experimental for Colo205: (§1) Cells were plated at 3000 cells/well in 384-well white plates in corresponding cell growth media. […] Caspase-3/7 activation was subsequently determined using a Caspase-Glo 3/7 Reagent (Promega) and viability was assayed using the CellTiter-Glo Reagent (Promega) as described in manufacturer’s instructions. Dose–response curves for caspase-3/7 activation and viability were plotted and analyzed (including EC50 and GI50 determination) using GraphPad Prism.
Experimental for H1048: as §1
Experimental for KMS34: as §1
Experimental for Kasumi1: as §1
Experimental for MCF7: as §1
Experimental for MDAMB468: as §1
Experimental for OCILY10: as §1
Experimental for OVCAR3: as §1
Experimental for RCK8: as §1
Experimental for Sudhl4: as §1
Experimental for ULA: as §1

With `Cc1c2c(nn1C)CSCc1cc(n(C)n1)CSc1cc(c3ccccc3c1)OCCCc1c(C(=O)O)n(C)c3c-2c(Cl)ccc13` (atropisomer, axis not shown; (Ra)) [(Ra)-7], the GI50 in the series on OVCAR3 was > 30 µM; with Sudhl4 it was 127 nM; in the series on Kasumi1, 133 nM; with RCK8 it was > 30 µM; in the series on OCILY10 it was 119 nM; with ULA, 91 nM. Moreover, the GI50 in the series on Colo205 worked out at 20.5 µM; with MDAMB468, 540 nM; in the series with KMS34, 503 nM; with MCF7, 1350 nM; in the series on H1048, 4.25 µM. In the series with MOLP-8 tumors (all dose levels, 10–100 mg kg^−1 single i.v. dose), the “tolerability, body weight” value is “no significant body weight loss”. The “mice with tumor regression after second dose” value with MOLP-8 tumors (single dose 36 days after the first dose, 100 mg kg^−1 i.v., regrown tumors) is 4 out of 4. Moreover, the “tumor growth inhibition (TGI)” value with MOLP-8 tumors (single i.v. dose 10 mg kg^−1, ten days after treatment) worked out at 52%; with MOLP-8 tumors (single i.v. dose 30 mg kg^−1, ten days after treatment) it was 93%. For the same compound, the “mice with no detectable tumors” value with MOLP-8 tumors (setting [2]) is given as 6 out of 7. The “tumor regression (TR)” value in the series on MOLP-8 tumors (setting [2]) came out at 99%. Also, the “mice with complete TR” value in the series on MOLP-8 tumors (single i.v. dose 100 mg kg^−1, ten days after treatment) is 7 out of 7. The apoptosis-inducing activity entry in series [1] is recorded as “blocked”. Besides, the “percentage of HLA-ABC+ hCD45+ leukemic cells in peripheral blood vs. vehicle” value in the series on MOLM-13 leukemic cells is given as “significantly reduced”. Further, in the series on MOLM-13 leukemic cells, the “percentage of leukemic cells in bone marrow” value is recorded as “reduced”.

Source of the values: PMC6297231 (Nature Communications, 2018).
